Results on seven molecules are retold here after ChEMBL document CHEMBL3400056, “Novel thiazolo[3,2-b]-1,2,4-triazoles derived from naproxen with analgesic/anti-inflammatory properties: Synthesis, biological evaluation and molecular modeling studies” (Bioorg Med Chem, 2015).

Molecules are shown by their SMILES.

The nature of series [1]: Selectivity ratio of IC50 for ovine recombinant COX-1 to IC50 for human recombinant COX-2.
Series [2] has as its system Mus musculus. Description: Acute toxicity in Swiss albino mouse assessed as behavioral changes at 50 to 100 mg/kg, po measured up to 14 days. Format: organism-based. The note with it: in vivo, 336 h. Further details: dose 50-100 mg/kg, route oral.
The test system of series [3] is Mus musculus. Description: Acute toxicity in Swiss albino mouse assessed as weight loss at 50 to 100 mg/kg, po measured up to 14 days. The note with it: in vivo, 336 h. The class given is organism-based. Further details: dose 50-100 mg/kg, route oral.
Series [4] concerns Mus musculus. Description: Acute toxicity in Swiss albino mouse assessed as mortality at 50 to 100 mg/kg, po measured after 6 hrs to 14 days. Format: organism-based. Also on record: dose 50-100 mg/kg, route oral. The following applies: in vivo.
Series [5] relates to Mus musculus. Description: Analgesic activity in Swiss albino mouse assessed as time of licking paws at 100 mg/kg, po measured after 2 hrs by tail flick test relative to control. Format: functional. On the technique in general: Hot-plate and tail-flick tests time the reaction to a heat stimulus.
Series [6] deals with Mus musculus. Description: Analgesic activity in Swiss albino mouse assessed as latancy of withdrawing tail at 50 mg/kg, po measured after 2 hrs by tail flick test relative to control. The class given is functional.
The subject of series [7] is Mus musculus. Description: Analgesic activity in Swiss albino mouse assessed as latancy of withdrawing tail at 100 mg/kg, po measured after 2 hrs by tail flick test relative to control. Format: functional.
Series [8] deals with Mus musculus. Description: Gastrointestinal toxicity in Swiss albino mouse assessed as ulcer index at 50 mg/kg, po measured after 2 hrs. Further details: dose 50 mg/kg, route oral. The class given is organism-based. The following applies: in vivo.
The test system of series [9] is Mus musculus. Description: Antiinflammatory activity in Swiss albino mouse assessed as inhibition of carrageenan-induced paw edema at 50 mg/kg, po administered 1 hr prior to carrageenan challenge measured after 2 hrs relative to control. Format: functional. Also on record: scale not given: the % may be the effect or the level left.
Series [10] concerns the target T1, Prostaglandin G/H synthase 1 (Ovis aries, UniProt P05979).
T1 sequence (P05979 whole entry): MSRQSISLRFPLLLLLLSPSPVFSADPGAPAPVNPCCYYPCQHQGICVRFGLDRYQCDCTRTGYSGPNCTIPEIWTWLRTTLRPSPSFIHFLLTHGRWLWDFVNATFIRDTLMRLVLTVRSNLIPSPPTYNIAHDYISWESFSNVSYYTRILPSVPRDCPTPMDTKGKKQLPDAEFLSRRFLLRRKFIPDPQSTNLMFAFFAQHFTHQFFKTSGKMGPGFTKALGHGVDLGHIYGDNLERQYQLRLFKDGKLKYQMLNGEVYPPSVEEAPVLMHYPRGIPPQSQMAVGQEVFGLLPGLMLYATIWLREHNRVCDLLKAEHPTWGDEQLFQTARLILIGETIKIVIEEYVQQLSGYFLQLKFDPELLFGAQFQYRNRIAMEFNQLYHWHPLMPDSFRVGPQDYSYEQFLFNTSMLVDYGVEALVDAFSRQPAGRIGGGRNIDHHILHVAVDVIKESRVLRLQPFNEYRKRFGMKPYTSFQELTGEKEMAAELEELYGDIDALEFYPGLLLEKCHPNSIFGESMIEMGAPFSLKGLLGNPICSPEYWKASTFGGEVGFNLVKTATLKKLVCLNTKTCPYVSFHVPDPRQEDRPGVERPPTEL
Description: Inhibition of ovine recombinant COX-1 using […] as substrate incubated for 10 mins prior to arachidonic acid addition measured after 2 mins by EIA.

Series [11] has as its system Mus musculus. Description: Gastrointestinal toxicity in Swiss albino mouse assessed as ulcer index at 100 mg/kg, po measured after 2 hrs. The class given is organism-based. Further details: dose 100 mg/kg, route oral. The following applies: in vivo.
Series [12] relates to Mus musculus. Description: Antiinflammatory activity in Swiss albino mouse assessed as inhibition of carrageenan-induced paw edema at 100 mg/kg, po administered 1 hr prior to carrageenan challenge measured after 2 hrs relative to control. Further details: scale not given: the % may be the effect or the level left. The class given is functional. (In the carrageenan paw model, swelling and tenderness develop within hours.)

For series [13], the target named is T2, Prostaglandin G/H synthase 2 (Homo sapiens, UniProt P35354).
T2 sequence (P35354 whole entry): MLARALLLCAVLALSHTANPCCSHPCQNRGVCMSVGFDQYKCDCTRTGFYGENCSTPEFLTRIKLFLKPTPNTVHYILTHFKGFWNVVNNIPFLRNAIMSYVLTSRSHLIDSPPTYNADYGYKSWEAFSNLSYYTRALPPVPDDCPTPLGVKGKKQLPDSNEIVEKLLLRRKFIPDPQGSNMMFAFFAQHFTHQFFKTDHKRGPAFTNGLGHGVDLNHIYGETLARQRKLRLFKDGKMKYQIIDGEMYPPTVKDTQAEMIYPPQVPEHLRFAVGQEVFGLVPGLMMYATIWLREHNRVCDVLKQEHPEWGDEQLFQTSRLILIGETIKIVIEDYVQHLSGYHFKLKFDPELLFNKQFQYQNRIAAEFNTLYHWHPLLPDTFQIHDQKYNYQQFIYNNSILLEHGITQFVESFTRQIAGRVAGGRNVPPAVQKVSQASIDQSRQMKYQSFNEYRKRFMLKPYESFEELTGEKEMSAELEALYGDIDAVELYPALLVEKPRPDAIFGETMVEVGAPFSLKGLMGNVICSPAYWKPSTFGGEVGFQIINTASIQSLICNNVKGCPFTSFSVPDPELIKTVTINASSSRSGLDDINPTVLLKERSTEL
Description: Inhibition of human recombinant COX-2 using […] as substrate incubated for 10 mins prior to arachidonic acid addition measured after 2 mins by EIA.

Series [14] concerns Mus musculus. Description: Analgesic activity in Swiss albino mouse assessed as time of licking paws at 50 mg/kg, po measured after 2 hrs by tail flick test relative to control. Format: functional.
The nature of series [15]: Acute toxicity in Swiss albino mouse assessed as mortality at 50 mg/kg, po after 12 hrs. Further details: dose 50 mg/kg, route oral. The following applies: in vivo. The class given is organism-based.

For the molecule `COc1ccc2cc(C(C)c3nc4s/c(=C\c5ccc(C)s5)c(=O)n4n3)ccc2c1` (configuration not stated), the Ratio IC50 in series [1] is greater than 4.87. Besides, the Activity result in the series with Mus musculus [2] is recorded as “Non-toxic”; in the series with Mus musculus [3], “Non-toxic”; in the series with Mus musculus [4], “Non-toxic”; in the series on Mus musculus [9], 36.7%; in the series on Mus musculus [12] it was 31.1%. In addition, the MPE with Mus musculus [5] is listed as 36%; with Mus musculus [6], 32.8%; in the series on Mus musculus [7], 43.5%; in the series on Mus musculus [14], 34.9%. For the same molecule, the results for the UI with Mus musculus [8] and in the series with Mus musculus [11] were 1.8 and 2.3, respectively. Moreover, the concentration for half-maximal inhibition (IC50) was greater than 100 µM in series [10] and 20.5 µM in [13].
`COc1ccc2cc(C(C)c3nc4s/c(=C\c5cccc6ccccc56)c(=O)n4n3)ccc2c1` (configuration not stated): in series [1], the Ratio IC50 is 1.25. The Activity result in the series with Mus musculus [2] is reported as “Non-toxic”; in the series with Mus musculus [3], “Non-toxic”; in the series on Mus musculus [4], “Non-toxic”; in the series on Mus musculus [9], 43%; in the series on Mus musculus [12], 39.6%. The MPE is 36.8% with Mus musculus [5], 51.9% in the series on Mus musculus [6], 53.8% with Mus musculus [7] and 39.7% with Mus musculus [14]. The UI in the series on Mus musculus [8] turned out to be 2.6; with Mus musculus [11], 2.2. For the same molecule, the half-maximal inhibitory concentration (IC50) in series [10] amounted to 85.6 µM; in [13], 68.2 µM.
For the molecule `COc1ccc2c(c1)c(CC(=O)O)c(C)n2C(=O)c1ccc(Cl)cc1` [INDOMETHACIN], the MPE with Mus musculus [5] amounted to 40.5%; with Mus musculus [6], 46.9%; with Mus musculus [7], 46.2%; in the series on Mus musculus [14] it was 35.2%. Besides, the UI is 4 with Mus musculus [8] and 5.1 in the series with Mus musculus [11]. Also, the mortality at 12 h in [15] stood at 71%. The results for the Activity in the series on Mus musculus [9] and with Mus musculus [12] were 46.8% and 50.9%, respectively.
For `COc1ccc2cc(C(C)c3nc4s/c(=C\c5ccc(Br)s5)c(=O)n4n3)ccc2c1` (configuration not stated), the Ratio IC50 in series [1] came out at 2.3. The Activity result in the series on Mus musculus [2] is listed as “Non-toxic”; with Mus musculus [3], “Non-toxic”; in the series on Mus musculus [4], “Non-toxic”; in the series with Mus musculus [9] it was 51.4%; in the series with Mus musculus [12] it was 51.2%. Moreover, the MPE is 24.4% with Mus musculus [5], 38% in the series on Mus musculus [6], 41.1% in the series on Mus musculus [7] and 29% with Mus musculus [14]. Besides, the UI was 1.8 in the series with Mus musculus [8] and 2.6 with Mus musculus [11]. The IC50 in series [10] stood at 39.8 µM; in series [13] it was 17.3 µM.
`COc1ccc2cc(C(C)c3nc4s/c(=C\C(C)=C\c5ccccc5)c(=O)n4n3)ccc2c1` (configuration not stated): the Ratio IC50 in series [1] stood at 2.63. Also, the Activity entry in the series with Mus musculus [2] is “Non-toxic”; with Mus musculus [3], “Non-toxic”; in the series with Mus musculus [4], “Non-toxic”; in the series on Mus musculus [9] it was 35.4%; with Mus musculus [12] it was 30.7%. Besides, the MPE turned out to be 25.9% in the series with Mus musculus [5], 45.3% in the series on Mus musculus [6], 41.1% in the series on Mus musculus [7] and 28.7% in the series with Mus musculus [14]. Also, the UI in the series on Mus musculus [8] was 2; with Mus musculus [11], 2.3. For the same molecule, the figures for the IC50 in series [10] and in series [13] were 64.7 µM and 24.6 µM, respectively.
On to `COc1ccc2cc(C(C)c3nc4s/c(=C\c5ccc(-c6ccccc6)cc5)c(=O)n4n3)ccc2c1` (configuration not stated), for which the Activity result in the series on Mus musculus [2] was “Non-toxic”; in the series on Mus musculus [3] it was “Non-toxic”; in the series with Mus musculus [4] it was “Non-toxic”; with Mus musculus [9], 45.3%; in the series on Mus musculus [12], 40.9%. Further, the MPE in the series with Mus musculus [5] worked out at 39.8%; in the series with Mus musculus [6], 47.1%; in the series on Mus musculus [7], 49.1%; with Mus musculus [14], 42.1%. Also, the UI with Mus musculus [8] is listed as 1.3; in the series on Mus musculus [11], 2.6. For the same molecule, the IC50 in series [10] and in [13] was greater than 100 µM in each case.
`COc1ccc2cc(C(C)c3nc4s/c(=C\c5ccc(C(C)C)cc5)c(=O)n4n3)ccc2c1` (configuration not stated): the Ratio IC50 in series [1] was less than 0.796. For the same molecule, the Activity entry in the series on Mus musculus [2] is on record as “Non-toxic”; in the series on Mus musculus [3] it was “Non-toxic”; in the series with Mus musculus [4], “Non-toxic”; with Mus musculus [9] it was 29.3%; in the series with Mus musculus [12] it was 43.3%. The MPE in the series with Mus musculus [5] stood at 22%; with Mus musculus [6], 36.9%; in the series with Mus musculus [7], 17.9%; in the series with Mus musculus [14], 27.6%. For the same molecule, the figures for the UI in the series with Mus musculus [8] and in the series on Mus musculus [11] were 2.6 and 2.4, respectively. The results for the IC50 in series [10] and in series [13] were 79.6 µM and greater than 100 µM, respectively.

For orientation: IC50 means the point on the concentration scale where inhibition reaches its midpoint. The term mortality denotes the percentage killed.
